# According to patent US10112937B2, “P2X7 modulators and methods of use” (Janssen Pharmaceutica NV, priority 2013, dated 2018):
# Molecular target: human P2X7 (Homo sapiens (Human), UniProt Q99572)
# Assay: P2X7 antagonism in human PBMCs (IL-1β release after LPS + Bz-ATP, ELISA)
# Assay type: cell-based
# Settings: for PBMC 1 μM (% control): test compound 1 μM; for PBMC 10 μM (% control): test compound 10 μM
# Chain of human P2X7 (Q99572 whole entry): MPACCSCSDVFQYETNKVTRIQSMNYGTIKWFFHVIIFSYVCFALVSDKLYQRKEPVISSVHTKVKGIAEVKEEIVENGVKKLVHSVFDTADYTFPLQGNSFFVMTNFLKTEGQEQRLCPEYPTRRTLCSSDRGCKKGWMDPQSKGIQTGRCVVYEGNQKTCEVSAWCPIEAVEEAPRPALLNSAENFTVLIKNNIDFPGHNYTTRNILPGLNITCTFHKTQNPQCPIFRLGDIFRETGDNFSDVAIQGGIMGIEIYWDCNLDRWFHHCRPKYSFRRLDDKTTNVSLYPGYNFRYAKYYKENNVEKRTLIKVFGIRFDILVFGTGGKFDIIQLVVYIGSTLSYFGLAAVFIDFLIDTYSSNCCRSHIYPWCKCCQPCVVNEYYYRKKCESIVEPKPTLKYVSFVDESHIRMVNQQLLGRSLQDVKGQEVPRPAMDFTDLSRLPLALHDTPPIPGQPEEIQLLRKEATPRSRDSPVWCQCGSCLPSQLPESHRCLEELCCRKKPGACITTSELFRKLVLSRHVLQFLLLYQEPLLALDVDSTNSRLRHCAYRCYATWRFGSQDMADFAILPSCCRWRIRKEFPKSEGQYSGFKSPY
SMILES,PBMC 10 μM (% control) (human PBMCs),further results
"O=C(c1cccc(Cl)c1Cl)N1CCc2c(-c3ccccc3)n[nH]c2C1 [Example 100, 6-[(2,3-Dichlorophenyl)carbonyl]-3-phenyl-4,5,6,7-tetrahydro-1H-pyrazolo[3,4-c]pyridine]",–,PBMC 1 μM (% control) (human PBMCs): 9.2 % control
"Cn1nc(-c2ccccc2)c2c1CN(C(=O)c1cccc(Cl)c1Cl)CC2.Cn1nc2c(c1-c1ccccc1)CCN(C(=O)c1cccc(Cl)c1Cl)C2 [Example 101, 6-[(2,3-Dichlorophenyl)carbonyl]-1-methyl-3-phenyl-4,5,6,7-tetrahydro-1H-pyrazolo[3,4-c]pyridine-6-[(2,3-dichlorophenyl)carbonyl]-2-methyl-3-phenyl-4,5,6,7-tetrahydro-2H-pyrazolo[3,4-c]pyridine (1:1)]",–,PBMC 1 μM (% control) (human PBMCs): 7.6 % control; PBMC 1 μM (% control) (LPS 30 ng/ml + 0.5 mM Bz-ATP): 7.6 % control
"Cn1nc2c(c1-c1ccccc1)CCN(C(=O)c1cccc(Cl)c1Cl)C2 [Example 102, 6-[(2,3-Dichlorophenyl)carbonyl]-2-methyl-3-phenyl-4,5,6,7-tetrahydro-2H-pyrazolo[3,4-c]pyridine]",–,PBMC 1 μM (% control) (human PBMCs): 18.0 % control
"Cn1nc(-c2ccccc2)c2c1CN(C(=O)c1cccc(Cl)c1Cl)CC2 [Example 103, 6-[(2,3-Dichlorophenyl)carbonyl]-1-methyl-3-phenyl-4,5,6,7-tetrahydro-1H-pyrazolo[3,4-c]pyridine]",–,PBMC 1 μM (% control) (human PBMCs): 56.0 % control
"O=C(c1ccnc(Cl)c1Cl)N1CCc2c(-c3ccccc3)n[nH]c2C1 [Example 104, 6-[(2,3-Dichloropyridin-4-yl)carbonyl]-3-phenyl-4,5,6,7-tetrahydro-1H-pyrazolo[3,4-c]pyridine]",–,PBMC 1 μM (% control) (human PBMCs): 8.9 % control
"Cn1nc2c(c1-c1ccc(F)cc1)CCN(C(=O)c1cccc(C(F)(F)F)c1Cl)C2 [Example 105, 6-{[2-Chloro-3-(trifluoromethyl)phenyl]carbonyl}-3-(4-fluorophenyl)-2-methyl-4,5,6,7-tetrahydro-2H-pyrazolo[3,4-c]pyridine]",–,PBMC 1 μM (% control) (human PBMCs): 51.0 % control
"Cn1nc(-c2cccnc2)c2c1CN(C(=O)c1cccc(C(F)(F)F)c1Cl)CC2 [Example 108, 6-{[2-Chloro-3-(trifluoromethyl)phenyl]carbonyl}-1-methyl-3-pyridin-3-yl-4,5,6,7-tetrahydro-1H-pyrazolo[3,4-c]pyridine]",–,PBMC 1 μM (% control) (human PBMCs): 1.1 % control
"CC1Cc2c(nnn2-c2ccccn2)CN1C(=O)c1cccc(Cl)c1Cl (centres unmarked) [Example 120, 5-[(2,3-Dichlorophenyl)carbonyl]-6-methyl-1-pyridin-2-yl-4,5,6,7-tetrahydro-1H-[1,2,3]triazolo[4,5-c]pyridine]",−3.8,–
"CC1Cc2c(nnn2-c2ccccn2)CN1C(=O)c1ccc(F)c(Cl)c1Cl (centres unmarked) [Example 121, 5-[(2,3-Dichloro-4-fluorophenyl)carbonyl]-6-methyl-1-pyridin-2-yl-4,5,6,7-tetrahydro-1H-[1,2,3]triazolo[4,5-c]pyridine]",−0.2,–
"CC1Cc2c(nnn2-c2ncccc2F)CN1C(=O)c1cccc(C(F)(F)F)c1Cl (centres unmarked) [Example 122, 5-{[2-Chloro-3-(trifluoromethyl)phenyl]carbonyl}-1-(3-fluoropyridin-2-yl)-6-methyl-4,5,6,7-tetrahydro-1H-[1,2,3]triazolo[4,5-c]pyridine]",0.2,–
"O=C(c1cccc(C(F)(F)F)c1F)N1CCc2c(nnn2-c2ccccn2)C1 [Example 123, (2-Fluoro-3-(trifluoromethyl)phenyl)(1-(pyridin-2-yl)-6,7-dihydro-1H-[1,2,3]triazolo[4,5-c]pyridin-5(4H)-yl)methanone]",–,PBMC 1 μM (% control) (human PBMCs): 22.0 % control
"Cn1ccc(-n2nnc3c2CCN(C(=O)c2cccc(C(F)(F)F)c2Cl)C3)n1 [Example 127, (2-Chloro-3-(trifluoromethyl)phenyl)(1-(1-methyl-1H-pyrazol-3-yl)-6,7-dihydro-1H-[1,2,3]triazolo[4,5-c]pyridin-5(4H)-yl)methanone]",9.2,–
"O=C(c1ccc(F)c(Cl)c1Cl)N1CCc2c(nnn2-c2ccccn2)C1 [Example 130, (2,3-Dichloro-4-fluorophenyl)(1-(pyridin-2-yl)-6,7-dihydro-1H-[1,2,3]triazolo[4,5-c]pyridin-5(4H)-yl)methanone]",3.7,–
"O=C(c1cccc(C(F)(F)F)c1Cl)N1CCc2c(nnn2-c2cccc(F)n2)C1 [Example 135, (2-Chloro-3-(trifluoromethyl)phenyl)(1-(6-fluoropyridin-2-yl)-6,7-dihydro-1H-[1,2,3]triazolo[4,5-c]pyridin-5(4H)-yl)methanone]",1.7,–
"C[C@@H]1c2nnn(-c3ncc(F)cn3)c2CCN1C(=O)c1cccc(C(F)(F)F)c1Cl [Example 158, (R)-(2-chloro-3-(trifluoromethyl)phenyl)(1-(5-fluoropyrimidin-2-yl)-4-methyl-6,7-dihydro-1H-[1,2,3]triazolo[4,5-c]pyridin-5(4H)-yl)methanone]",1.1,–
"CC1Cc2c(nnn2-c2ncccc2F)CN1C(=O)c1cccc(Cl)c1Cl (centres unmarked) [Example 161, (2,3-Dichlorophenyl)(1-(3-fluoropyridin-2-yl)-6-methyl-6,7-dihydro-1H-[1,2,3]triazolo[4,5-c]pyridin-5(4H)-yl)methanone]",−0.9,–
"CC1c2nnn(-c3ncc(F)cn3)c2CCN1C(=O)c1cccc(C(F)(F)F)c1F (centres unmarked) [Example 175, (2-fluoro-3-(trifluoromethyl)phenyl)(1-(5-fluoropyrimidin-2-yl)-4-methyl-6,7-dihydro-1H-[1,2,3]triazolo[4,5-c]pyridin-5(4H)-yl)methanone]",4.5,–
"CC1Cc2c(nnn2-c2cc(F)ccn2)CN1C(=O)c1cccc(C(F)(F)F)c1Cl (centres unmarked) [Example 176, (2-Chloro-3-(trifluoromethyl)phenyl)(1-(4-fluoropyridin-2-yl)-6-methyl-6,7-dihydro-1H-[1,2,3]triazolo[4,5-c]pyridin-5(4H)-yl)methanone]",7.3,–
"CC1c2nnn(-c3cncnc3)c2CCN1C(=O)c1cccc(C(F)(F)F)c1Cl (centres unmarked) [Example 177, (2-Chloro-3-(trifluoromethyl)phenyl)(4-methyl-1-(pyrimidin-5-yl)-6,7-dihydro-1H-[1,2,3]triazolo[4,5-c]pyridin-5(4H)-yl)methanone]",8.6,–
"Cc1cc(C)nc(-n2nnc3c2CCN(C(=O)c2cccc(Cl)c2Cl)C3C)n1 (centres unmarked) [Example 179, (2,3-dichlorophenyl)(1-(4,6-dimethylpyrimidin-2-yl)-4-methyl-6,7-dihydro-1H-[1,2,3]triazolo[4,5-c]pyridin-5(4H)-yl)methanone]",−4.3,–
"Cc1cncc(-n2nnc3c2CCN(C(=O)c2cccc(Cl)c2Cl)C3C)n1 (centres unmarked) [Example 180, (2,3-dichlorophenyl)(4-methyl-1-(6-methylpyrazin-2-yl)-6,7-dihydro-1H-[1,2,3]triazolo[4,5-c]pyridin-5(4H)-yl)methanone]",−3.7,–
"CCc1nc2c(n1-c1ccccc1)CCN(C(=O)c1cccc(C(F)(F)F)c1Cl)C2C (centres unmarked) [Example 184, (2-Chloro-3-(trifluoromethyl)phenyl)(2-ethyl-4-methyl-1-phenyl-6,7-dihydro-1H-imidazo[4,5-c]pyridin-5(4H)-yl)methanone]",−0.7,–

# Now from value to compound, other results behind:
PBMC 10 μM (% control) (human PBMCs),SMILES,further results
−3.3,"O=C(c1cccc(Cl)c1Cl)N1CCc2c(-c3ccncc3)n[nH]c2C1 [Example 115, 6-[(2,3-Dichlorophenyl)carbonyl]-3-pyridin-4-yl-4,5,6,7-tetrahydro-2H-pyrazolo[3,4-c]pyridine]",–
4.3,"O=C(c1ccc(F)cc1Cl)N1CCc2c(nnn2-c2ccccn2)C1 [Example 117, (2-Chloro-4-fluorophenyl)(1-(pyridin-2-yl)-6,7-dihydro-1H-[1,2,3]triazolo[4,5-c]pyridin-5(4H)-yl)methanone]",–
8.4,"O=C(c1ccc(Cl)cc1F)N1CCc2c(nnn2-c2ccccn2)C1 [Example 129, (4-Chloro-2-fluorophenyl)(1-(pyridin-2-yl)-6,7-dihydro-1H-[1,2,3]triazolo[4,5-c]pyridin-5(4H)-yl)methanone]",–
3.8,"Cc1c(C(=O)N2CCc3c(nnn3-c3ccccn3)C2)ccc(F)c1F [Example 132, (3,4-Difluoro-2-methylphenyl)(1-(pyridin-2-yl)-6,7-dihydro-1H-[1,2,3]triazolo-[4,5-c]pyridin-5(4H)-yl)methanone]",–
5.3,"COc1ccnc(-n2nnc3c2CCN(C(=O)c2cccc(C(F)(F)F)c2Cl)C3)c1 [Example 136, (2-Chloro-3-(trifluoromethyl)phenyl)(1-(4-methoxypyridin-2-yl)-6,7-dihydro-1H-[1,2,3]triazolo[4,5-c]pyridin-5(4H)-yl)methanone]",–
8.8,"CC1Cc2c(nnn2-c2cc(F)ccn2)CN1C(=O)c1cccc(Cl)c1Cl (centres unmarked) [Example 173, 5-[(2,3-Dichlorophenyl)carbonyl]-1-(4-fluoropyridin-2-yl)-6-methyl-4,5,6,7-tetrahydro-1H-[1,2,3]triazolo[4,5-c]pyridine]",–
4.2,"CC1c2nnn(-c3ncc(F)cn3)c2CCN1C(=O)c1cccc(Cl)c1Cl (centres unmarked) [Example 174, (2,3-Dichlorophenyl)(1-(5-fluoropyrimidin-2-yl)-4-methyl-6,7-dihydro-1H-[1,2,3]triazolo[4,5-c]pyridin-5(4H)-yl)methanone]",–
0.5,"CC1Cc2c(nnn2-c2ccn[nH]2)CN1C(=O)c1cccc(C(F)(F)F)c1F (centres unmarked) [Example 189, (2-fluoro-3-(trifluoromethyl)phenyl)(6-methyl-1-(1H-pyrazol-3-yl)-6,7-dihydro-1H-[1,2,3]triazolo[4,5-c]pyridin-5(4H)-yl)methanone]",–
3.2,"CC1Cc2c(nnn2-c2ncc(F)cn2)CN1C(=O)c1cccc(C(F)(F)F)c1Cl (centres unmarked) [Example 200, 5-{[2-Chloro-3-(trifluoromethyl)phenyl]carbonyl}-1-(5-fluoropyrimidin-2-yl)-6-methyl-4,5,6,7-tetrahydro-1H-[1,2,3]triazolo[4,5-c]pyridine]",–
